Experimental data: patent publication US5641804A, “Fungicidal compound comprising a cyclic polylactone” (Novo Nordisk A/S, priority 1992, dated 1997)
In brackets after ≈: the same amount, converted by molar mass.

Legend:
Phoma betae = assay: Agar well inhibition zone, Phoma betae (Pb); format: cell-based; details: 15 μl per well, 3 days at 25° C.; for zone of inhibition at 500 µg/mL: 0.5 mg/ml
Experimental: Phoma betae (Pb) seedling black rot, black leg
(§1) Each of the above mentioned 9 pathogens were separately innoculated into 100 ml of potato dextrose (PD) bouillon and shaken at 200 rpm at 25° C. for 7 days. The mycelium was harvested and homogenized for about 10 seconds in a Warring blender and 1-5 ml of the blended mycelium was transferred to petri dishes with a diameter of 14 cm. […] 20 ml of potato dextrose agar (PDA) having a temperature of 45° C. were poured into each of the petri dishes and thorougly mixed with the blended mycelium present therein. When the agar had solidified, wells of a diameter of 4 mm were punched in the agar, and 15 μl of test solutions containing varicus concentrations of compound Ia, Ib and IIa dissolved in ethanol was applied to each well. The plates were incubated for three days at 25° C. and the inhibition zones measured (in mm). […]

plant pathogenic fungi = assay: In vitro fungicidal activity spectrum over the pathogens tested; format: cell-based
Experimental: The following pathogens were used:
(§2) Each of the above mentioned 9 pathogens were separately innoculated into 100 ml of potato dextrose (PD) bouillon and shaken at 200 rpm at 25° C. for 7 days. The mycelium was harvested and homogenized for about 10 seconds in a Warring blender and 1-5 ml of the blended mycelium was transferred to petri dishes with a diameter of 14 cm. […] 20 ml of potato dextrose agar (PDA) having a temperature of 45° C. were poured into each of the petri dishes and thorougly mixed with the blended mycelium present therein. When the agar had solidified, wells of a diameter of 4 mm were punched in the agar, and 15 μl of test solutions containing varicus concentrations of compound Ia, Ib and IIa dissolved in ethanol was applied to each well. The plates were incubated for three days at 25° C. and the inhibition zones measured (in mm).
(§3) The experiments were repeated and in the second run, Bc plates were made from Bc spores (the plates were termed Bc2) as such plates may result in a more uniform growth.

[1] = system: mouse peritoneal macrophage; assay: Mouse peritoneal macrophage assay, chemiluminescence (phagocytosis); format: cell-based
Sclerotinia sclerotiorum = assay: Agar well inhibition zone, Sclerotinia sclerotiorum (Ss); format: cell-based; design: key to inhibition zone Ss: clear; diffuse; very diffuse; +: very weak; details: 15 μl per well, 3 days at 25° C.
Experimental: Sclerotinia sclerotiorum (Ss) white mould disease, stem rot
as §1

Pyrenophora teres = assay: Agar well inhibition zone, Pyrenophora teres (Pt); format: cell-based; design: key to inhibition zone Pt: clear; diffuse; very diffuse; +: very weak; details: 15 μl per well, 3 days at 25° C.; for zone of inhibition at 500 µg/mL / zone of inhibition at 1000 µg/mL / zone of inhibition at 100 µg/mL: Pyrenophora teres, 72 h; for zone of inhibition at 500 µg/mL: 0.5 mg/ml; for zone of inhibition at 1000 µg/mL: 1.0 mg/ml
Experimental: Pyrenophora teres (Pt) net blotch disease
as §1

Phoma lingam = assay: Agar well inhibition zone, Phoma lingam (Pl); format: cell-based; design: key to inhibition zone P1: clear; diffuse; very diffuse; +: very weak; details: 15 μl per well, 3 days at 25° C.; for zone of inhibition at 1000 µg/mL: 1.0 mg/ml
Experimental: Phoma lingam (Pl) canker and dry rot
as §1

[2] = system: mouse peritoneal macrophage; assay: Mouse peritoneal macrophage assay, cellular ATP (viability); format: cell-based
Monilinia fructigena = assay: Agar well inhibition zone, Monilinia fructigena (Mf); format: cell-based; details: 15 μl per well, 3 days at 25° C.; for zone of inhibition at 500 µg/mL: 0.5 mg/ml; for zone of inhibition at 1000 µg/mL: 1.0 mg/ml
Experimental: Monilinia fructigena (Mf) brown rot, fruit rot
as §1

Ascochyta pisi = assay: Agar well inhibition zone, Ascochyta pisi (Ap); format: cell-based; design: key to inhibition zone Ap: clear; diffuse; very diffuse; +: very weak; details: 15 μl per well, 3 days at 25° C.; for zone of inhibition at 1000 µg/mL: 1.0 mg/ml
Experimental: Ascochyta pisi (Ap) leaf, stem and pod rot
as §1

Alternaria alternata = assay: Agar well inhibition zone, Alternaria alternata (Aa); format: cell-based; details: 15 μl per well, 3 days at 25° C.; for zone of inhibition at 500 µg/mL: 0.5 mg/ml; for zone of inhibition at 1000 µg/mL: 1.0 mg/ml
Experimental: Alternaria alternata (Aa) black mould coverings, leaf spot
as §2, §3

Botrytis cinerea [3] = assay: Agar well inhibition zone, Botrytis cinerea, mycelium plates (Bc1); format: cell-based; design: key to inhibition zone Bc1: clear; diffuse; very diffuse; +: very weak; details: 15 μl per well, 3 days at 25° C.
Experimental: (§4) Botrytis cinerea (Bc) grey mould
as §1

Botrytis cinerea [4] = assay: Agar well inhibition zone, Botrytis cinerea, plates made from spores (Bc2); format: cell-based; details: for appearance of Bc zones / time of incubation after which Bc zones could be seen: Bc plates; for zone of inhibition at 500 µg/mL: 0.5 mg/ml; for zone of inhibition at 1000 µg/mL: 1.0 mg/ml
Experimental: as §4, §2, §3

Botrytis cinerea [5] = assay: Fungicidal activity in vivo against Botrytis cinerea on sprayed plants; details: spray to run off, assessed after 6 days
Experimental: Activity of the compounds Ia and Ib against Botrytis cinerea Host: Lycopersicon esculentum (tomato, var. First in Field) […] plants (5 weeks old) were sprayed to run off with liquid solutions using a handhold sprayer (Bink Bullows 900). The solution (70% EtOH) had different concentrations of the compounds Ia and Ib. The plants were kept 24 hours in a green house to dry before they were inoculated with a spore suspension containing 1×10^5 spores/ml in 25% grape juice. The inoculation was carried out with a handhold atomizer (Wagner, Pico Bel). The plants were then incubated (16 hours light (1000 lux) and 8 hours dark) at 15°-20° C. in clear polyethylene bags to raise the relative humidity to 95-100%. After 6 days the assessment was done.

nerve growth factor = details: cited from earlier work
[6] = Neocamarosporium betae, 72 h, 0.1 mg/ml
[7] = Plenodomus lingam, 72 h, read-out: inhibition zone P1
[8] = Ascochyta pisi, 72 h, 0.1 mg/ml
[9] = 0.1 mg/ml, 15 μl per well, 3 days at 25° C., plates from spores
[10] = Botrytis cinerea, 72 h, 15 μl per well, 3 days at 25° C., plates from spores
[11] = Botrytis cinerea, 72 h, 0.1 mg/ml

For `C[C@@H]1Cc2cc(O)cc(O)c2C(=O)O[C@H](C)CC(=O)OC[C@@H](O)CC(=O)O[C@H](C)Cc2cc(O)cc(O)c2C(=O)O[C@H](C)CC(=O)O1` [Compound IIa], the zone of inhibition at 100 µg/mL (Phoma betae; [6]) was 0 mm, the zone of inhibition at 500 µg/mL (Phoma betae; Neocamarosporium betae, 72 h) was 0 mm and the “number of pathogens against which compound was active” value (plant pathogenic fungi; with respect to Bc only for the plate containing spores) was 5 pathogens. The IC50 [1] was less than 10 mg/L, the “inhibition zone Ss” value (Sclerotinia sclerotiorum; 0.1 mg/ml) was 40d mm and the “inhibition zone Ss” value (Sclerotinia sclerotiorum; 0.5 mg/ml) was “+”. The “inhibition zone Ss” value (Sclerotinia sclerotiorum; 1.0 mg/ml) was “+”, the “inhibition zone Pt” value (Pyrenophora teres; 0.1 mg/ml) was “+” and the zone of inhibition at 500 µg/mL (Pyrenophora teres) was 0 mm. For the same compound, the zone of inhibition at 1000 µg/mL (Pyrenophora teres) was 0 mm, the “inhibition zone P1” value (Phoma lingam; 0.1 mg/ml) was 31d mm and the zone of inhibition at 500 µg/mL (Phoma lingam; Plenodomus lingam, 72 h, 0.5 mg/ml, read-out: inhibition zone P1) was 14 mm. For the same compound, the zone of inhibition at 1000 µg/mL (Phoma lingam; [7]) was 18 mm, the IC50 [2] was less than 10 mg/L and the “inhibition zone Mf” value (Monilinia fructigena; 0.1 mg/ml) was 40v. For the same compound, the zone of inhibition at 500 µg/mL (Monilinia fructigena; Monilinia fructigena, 72 h) was 40 mm, the zone of inhibition at 1000 µg/mL (Monilinia fructigena; Monilinia fructigena, 72 h) was 40 mm and the zone of inhibition at 100 µg/mL (Ascochyta pisi; [8]) was 0 mm. For the same compound, the zone of inhibition at 500 µg/mL (Ascochyta pisi; Ascochyta pisi, 72 h, 0.5 mg/ml) was 0 mm, the zone of inhibition at 1000 µg/mL (Ascochyta pisi; Ascochyta pisi, 72 h) was 0 mm and the zone of inhibition at 500 µg/mL (Alternaria alternata; Alternaria alternata, 72 h) was 0 mm. The zone of inhibition at 1000 µg/mL (Alternaria alternata; Alternaria alternata, 72 h) was 0 mm, the “inhibition zone Bc1” value (Botrytis cinerea [3]; 0.1 mg/ml) was “+” and the “inhibition zone Bc1” value (Botrytis cinerea [3]; 0.5 mg/ml) was “+”. For the same compound, the “inhibition zone Bc1” value (Botrytis cinerea [3]; 1.0 mg/ml) was “+”, the “inhibition zone Bc2” value (Botrytis cinerea [4]; [9]) was 30d mm and the “appearance of Bc zones” value (Botrytis cinerea [4]) was “very diffuse”. The “time of incubation after which Bc zones could be seen” value (Botrytis cinerea [4]) was no less than 3 days, the zone of inhibition at 500 µg/mL (Botrytis cinerea [4]; [10]) was 37 mm and the zone of inhibition at 1000 µg/mL (Botrytis cinerea [4]; [10]) was 45 mm.
`C[C@@H]1CC(=O)O[C@H](C)Cc2cc(O)cc(O)c2C(=O)O[C@H](C)CC(=O)O[C@H](C)Cc2cc(O)cc(O)c2C(=O)O[C@H](C)CC(=O)O1` [Compound Ib] showed a zone of inhibition at 100 µg/mL (Phoma betae; [6]) of 0 mm, a zone of inhibition at 500 µg/mL (Phoma betae; Neocamarosporium betae, 72 h) of 17 mm and a zone of inhibition at 1000 µg/mL (Phoma betae; Neocamarosporium betae, 72 h, 1.0 mg/ml) of 20 mm. The activity spectrum (plant pathogenic fungi; all pathogens tested, Table 2) was “active, to a higher or lower degree, towards all of the pathogens tested”, the IC50 [1] was 6 mg/L (≈ 9.28 µM) and the zone of inhibition at 100 µg/mL (Sclerotinia sclerotiorum; Sclerotinia sclerotiorum, 72 h, 0.1 mg/ml) was 0 mm. The zone of inhibition at 500 µg/mL (Sclerotinia sclerotiorum; Sclerotinia sclerotiorum, 72 h, 0.5 mg/ml) was 0 mm, the zone of inhibition at 1000 µg/mL (Sclerotinia sclerotiorum; Sclerotinia sclerotiorum, 72 h, 1.0 mg/ml) was 0 mm and the zone of inhibition at 100 µg/mL (Pyrenophora teres; 0.1 mg/ml) was 0 mm. The zone of inhibition at 500 µg/mL (Pyrenophora teres) was 17 mm, the zone of inhibition at 1000 µg/mL (Pyrenophora teres) was 33 mm and the “inhibition zone P1” value (Phoma lingam; 0.5 mg/ml) was “+”. It also gave a zone of inhibition at 100 µg/mL (Phoma lingam; Plenodomus lingam, 72 h, 0.1 mg/ml, read-out: inhibition zone P1) of 0 mm, a zone of inhibition at 1000 µg/mL (Phoma lingam; [7]) of 12 mm and an IC50 [2] of 6 mg/L (≈ 9.28 µM). The zone of inhibition at 100 µg/mL (Monilinia fructigena; Monilinia fructigena, 72 h, 0.1 mg/ml) was 0 mm, the zone of inhibition at 500 µg/mL (Monilinia fructigena; Monilinia fructigena, 72 h) was 0 mm and the zone of inhibition at 1000 µg/mL (Monilinia fructigena; Monilinia fructigena, 72 h) was 25 mm. For the same compound, the “inhibition zone Ap” value (Ascochyta pisi; 0.5 mg/ml) was “+”, the zone of inhibition at 100 µg/mL (Ascochyta pisi; [8]) was 0 mm and the zone of inhibition at 1000 µg/mL (Ascochyta pisi; Ascochyta pisi, 72 h) was 15 mm. For the same compound, the zone of inhibition at 100 µg/mL (Alternaria alternata; Alternaria alternata, 72 h, 0.1 mg/ml) was 0 mm, the zone of inhibition at 500 µg/mL (Alternaria alternata; Alternaria alternata, 72 h) was 15 mm and the zone of inhibition at 1000 µg/mL (Alternaria alternata; Alternaria alternata, 72 h) was 17 mm. For the same compound, the protection (Botrytis cinerea [5]; 36 ppm) was “approx. 50%”, the protection (Botrytis cinerea [5]; 360 ppm) was “approx. 50%” and the zone of inhibition at 100 µg/mL (Botrytis cinerea [3]; [11]) was 0 mm. For the same compound, the zone of inhibition at 500 µg/mL (Botrytis cinerea [3]; Botrytis cinerea, 72 h, 0.5 mg/ml) was 0 mm, the zone of inhibition at 1000 µg/mL (Botrytis cinerea [3]; Botrytis cinerea, 72 h, 1.0 mg/ml) was 0 mm and the “appearance of Bc zones” value (Botrytis cinerea [4]) was “very clear”. For the same compound, the “time of incubation after which Bc zones could be seen” value (Botrytis cinerea [4]) was no more than 2 days, the zone of inhibition at 100 µg/mL (Botrytis cinerea [4]; Botrytis cinerea, 72 h, 0.1 mg/ml, 15 μl per well, 3 days at 25° C., plates from spores) was 0 mm and the zone of inhibition at 500 µg/mL (Botrytis cinerea [4]; [10]) was 26 mm. It also gave a zone of inhibition at 1000 µg/mL (Botrytis cinerea [4]; [10]) of 30 mm.
In the case of `C[C@@H]1Cc2cc(O)cc(O)c2C(=O)O[C@H](C)CC(=O)OC[C@@H](O)CC(=O)O[C@H](C)Cc2cc(O)cc(O)c2C(=O)O[C@H](C)CC(=O)O1` [IIIa], the “inhibition zone Pb” value (Phoma betae; 0.1 mg/ml) is reported as 0 mm, the “inhibition zone Ss” value (Sclerotinia sclerotiorum; 0.1 mg/ml) is reported as 0 mm and the zone of inhibition at 100 µg/mL (Pyrenophora teres; 0.1 mg/ml) is reported as 0 mm. The “inhibition zone P1” value (Phoma lingam; 0.1 mg/ml) was 0 mm, the “inhibition zone Mf” value (Monilinia fructigena; 0.1 mg/ml) was 0 mm and the “inhibition zone Ap” value (Ascochyta pisi; 0.1 mg/ml) was 0 mm. The “inhibition zone Aa” value (Alternaria alternata; 0.1 mg/ml) was 0 mm, the zone of inhibition at 100 µg/mL (Botrytis cinerea [3]; [11]) was 0 mm and the “inhibition zone Bc2” value (Botrytis cinerea [4]; [9]) was 0 mm.
In the case of `CC1Cc2cc(O)cc(O)c2C(=O)OC(C)CC(=O)OC(C)Cc2cc(O)cc(O)c2C(=O)OC(C)CC(=O)OC(CO)CC(=O)O1` (centres unmarked) [NG-012], the “nerve growth factor potentiation” value (nerve growth factor) is given as “nerve growth factor potentiator”.
